Data on 27 compounds can be found in ChEMBL document CHEMBL3045975, “In vitro anti-inflammatory potential and QSAR analysis of oxazolo/thiazolo pyrimidine derivatives” (Med Chem Res, 2013).

This experiment in a line: In vitro anti-inflammatory activity assessed as inhibition of heat-induced albumin denaturtion incubated for 15 min followed by heating measured after 10 min. In kind it is functional.
As for `COc1ccc(/C=c2\oc3n(c2=O)C(c2ccccc2)C(C(=O)Nc2ccccc2)=C(C)N=3)cc1` (configuration not stated), the IC50 stood at 304.179 ppm.
The figure for `CC1=C(C(=O)Nc2ccccc2)C(c2ccc([N+](=O)[O-])cc2)n2c(s/c(=C\c3ccc(N(C)C)cc3)c2=O)=N1` (configuration not stated) is 336.75 ppm; for `COc1ccc(/C=c2\oc3n(c2=O)C(c2ccc([N+](=O)[O-])cc2)C(C(=O)Nc2ccccc2)=C(C)N=3)cc1` (configuration not stated) it is 259.104 ppm; for `CC1=C(C(=O)Nc2ccccc2)C(c2ccc([N+](=O)[O-])cc2)n2c(o/c(=C\c3ccc(Cl)cc3)c2=O)=N1` (configuration not stated) it is 196.05 ppm.
In the case of `CC1=C(C(=O)Nc2ccccc2)C(c2ccc([N+](=O)[O-])cc2)n2c(o/c(=C\c3ccc(N(C)C)cc3)c2=O)=N1` (configuration not stated) it was 339.35 ppm; in that of `COc1ccc(C2C(C(=O)Nc3ccccc3)=C(C)N=c3s/c(=C\c4ccc([N+](=O)[O-])cc4)c(=O)n32)cc1` (configuration not stated), 254.99 ppm; in that of `COc1ccc(C2C(C(=O)Nc3ccccc3)=C(C)N=c3s/c(=C\c4ccc(N(C)C)cc4)c(=O)n32)cc1` (configuration not stated), 301.677 ppm.
In the case of `COc1ccc(C2C(C(=O)Nc3ccccc3)=C(C)N=c3o/c(=C\c4ccc(Cl)cc4)c(=O)n32)cc1` (configuration not stated) it was 236.954 ppm.
Turning to `COc1ccc(C2C(C(=O)Nc3ccccc3)=C(C)N=c3o/c(=C\c4ccc([N+](=O)[O-])cc4)c(=O)n32)cc1` (configuration not stated), the IC50 stood at 272.584 ppm.
In the case of `COc1ccc(C2C(C(=O)Nc3ccccc3)=C(C)N=c3o/c(=C\c4ccc(N(C)C)cc4)c(=O)n32)cc1` (configuration not stated) it was 314.544 ppm; in that of `COc1ccc(/C=c2\sc3n(c2=O)C(c2ccc(Cl)cc2)C(C(=O)Nc2ccccc2)=C(C)N=3)cc1` (configuration not stated), 232.597 ppm; in that of `CC1=C(C(=O)Nc2ccccc2)C(c2ccc(Cl)cc2)n2c(s/c(=C\c3ccc([N+](=O)[O-])cc3)c2=O)=N1` (configuration not stated), 190.42 ppm.
The figure for `CC1=C(C(=O)Nc2ccccc2)C(c2ccc(Cl)cc2)n2c(s/c(=C\c3ccc(N(C)C)cc3)c2=O)=N1` (configuration not stated) is 309.862 ppm; for `COc1ccc(/C=c2\oc3n(c2=O)C(c2ccc(Cl)cc2)C(C(=O)Nc2ccccc2)=C(C)N=3)cc1` (configuration not stated) it is 242.144 ppm; for `CC1=C(C(=O)Nc2ccccc2)C(c2ccc(Cl)cc2)n2c(o/c(=C\c3ccc([N+](=O)[O-])cc3)c2=O)=N1` (configuration not stated) it is 192.486 ppm.
In the case of `CC1=C(C(=O)Nc2ccccc2)C(c2ccc(Cl)cc2)n2c(o/c(=C\c3ccc(N(C)C)cc3)c2=O)=N1` (configuration not stated) it was 319.524 ppm; in that of `COc1ccc(/C=c2\sc3n(c2=O)C(c2ccc([N+](=O)[O-])cc2)C(C(=O)Nc2ccccc2)=C(C)N=3)cc1` (configuration not stated), 250.38 ppm.
As to `CC1=C(C(=O)Nc2ccccc2)C(c2ccc([N+](=O)[O-])cc2)n2c(s/c(=C\c3ccc(Cl)cc3)c2=O)=N1` (configuration not stated), the IC50 amounted to 194.611 ppm.
The figure for `COc1ccc(/C=c2\sc3n(c2=O)C(c2ccccc2)C(C(=O)Nc2ccccc2)=C(C)N=3)cc1` (configuration not stated) is 291.257 ppm; for `CC1=C(C(=O)Nc2ccccc2)C(c2ccccc2)n2c(s/c(=C\c3ccc(Cl)cc3)c2=O)=N1` (configuration not stated) it is 226.318 ppm.
In the case of `CC1=C(C(=O)Nc2ccccc2)C(c2ccccc2)n2c(s/c(=C\c3ccc([N+](=O)[O-])cc3)c2=O)=N1` (configuration not stated) it was 253.376 ppm; in that of `CC1=C(C(=O)Nc2ccccc2)C(c2ccccc2)n2c(s/c(=C\c3ccc(N(C)C)cc3)c2=O)=N1` (configuration not stated), 316.686 ppm; in that of `CC1=C(C(=O)Nc2ccccc2)C(c2ccccc2)n2c(o/c(=C\c3ccc(Cl)cc3)c2=O)=N1` (configuration not stated), 261.464 ppm.
The figure for `CC1=C(C(=O)Nc2ccccc2)C(c2ccccc2)n2c(o/c(=C\c3ccc([N+](=O)[O-])cc3)c2=O)=N1` (configuration not stated) is 283.525 ppm; for `CC1=C(C(=O)Nc2ccccc2)C(c2ccccc2)n2c(o/c(=C\c3ccc(N(C)C)cc3)c2=O)=N1` (configuration not stated) it is 330.312 ppm.
Turning to `COc1ccc(C2C(C(=O)Nc3ccccc3)=C(C)N=c3s/c(=C\c4ccc(Cl)cc4)c(=O)n32)cc1` (configuration not stated), the IC50 is reported as 210.874 ppm.
The figure for `O=C([O-])Cc1ccccc1Nc1c(Cl)cccc1Cl.[Na+]` [DICLOFENAC SODIUM] is 188.24 ppm.
